From patent US20250127759A1, “METHODS AND DOSING REGIMENS COMPRISING A CDK2 INHIBITOR FOR THE TREATMENT OF CANCER” (PFIZER INC., priority 2021, published 2025) come the findings set out here.

Marks after values point to notes of the source that are not given here.

For one assay, the system named is MCF7 Cells. The assay is described as follows: Combination cell proliferation assay, MCF7. The format is cell-based, human. The method, then: (§1) The combination effects of PF-07104091 with palbociclib were evaluated in a cell proliferation assay with MCF7 and T47D BC cell lines. […] Drug combinations were analyzed using the Dose Equivalence Principle, and the Loewe Volume score. When modeling synergy using the Dose Equivalence Principle, the Loewe Volume score for the combination compounds should be greater than the compound self-cross controls, and the Combination Index score for the combination compounds should be less than compound self-cross controls. […] Furthermore, the isobolograms set to an anti-proliferation threshold at 70% confirm a synergistic response.

In a further assay the test system is T-47D Cells. The assay is described as follows: Combination cell proliferation assay, T47D. The class given is cell-based, human. The method, then: as §1
For a further assay, the system named is NCI-H526 Model. The assay is described as follows: In vivo efficacy, NCI-H526 small cell lung cancer model. Details: species or system mice. The method, then: Female NSG (Jackson Lab) or Nu/nu (CRL) were subcutaneously implanted with tumor cells or fragments (8 mm^3 to 27 mm^3) into the dorsal region. For the MCF7 study, mice were supplemented with estrogen (sc implanted, 17β-estradiol, 0.36 mg, 90-day release pellet, Innovative Research of America, cat no. NE-121).
To establish the NCI-H526 model, tumor cells (4×10^6 cells/mouse with 50% Cultrex® Basement Membrane Matrix) were subcutaneously implanted in female Nu/nu mice. […] PF-07104091, Palbociclib at 10 mg/kg and CDK 2/4/6 inhibitor were administered (p.o.) BID (7 hr apart). TGI was assessed on Day 15 post first dose (or Day 20 post tumor cell implant).

In a further assay the test system is T47D. Briefly: In vivo efficacy, T47D breast cancer model. Also noted: species or system mice. The settings on record: Day 41, 10 mg/kg BID PO. On the procedure:
The T47D model was established by implanting passage 3 tumor fragments into recipient mice. To establish the T47D donor mice, tumor cells (5×10^6 cell/mouse with 50% Cultrex® Basement Membrane Matrix) were subcutaneously implanted in female NSG mice. […] All mice received treatment continuously until Day 41. TGI was assessed on Day 41 post first dose.

In the next assay the test system is HCC1428. Briefly: In vivo efficacy, HCC1428 breast cancer model. Also noted: species or system mice. The following applies: Day 42, 10 mg/kg BID PO, 10 mg/kg. The method, then:
The HCC1428 model was established by implanting passage 4 tumor fragments into recipient mice. To establish the HCC1428 donor mice, tumor cells (5×10^6 cell/mouse with 50% Cultrex® Basement Membrane Matrix) were subcutaneously implanted in female NSG mice. […] All mice received treatment continuously until Day 42. TGI was assessed on Day 42 post first dose.

The next assay deals with ST941PBR PDX. Briefly: In vivo efficacy, palbociclib-resistant ST941PBR PDX model. The settings on record: Day 28, 10 mg/kg BID PO.

Description for ST941PBR PDX: Female NSG mice (Jackson Lab) were subcutaneously implanted with fragment (27 mm^3 to 64 mm^3 size) into the dorsal region. All mice for T47D, HCC1428 and ST941 PBR studies were supplemented with 8.5 μg/mL estradiol water (β-Estradiol Sigma-Aldrich, cat #E2758-5G) and gave ad libitum till end of study. For the in vivo efficacy studies, tumor volume and body weights were measured twice a week. Tumor volume was calculated using the [(Length×Width×Width)/2)] formula. TGI was calculated as 100*(1−ΔT/ΔC). The ΔC (ΔT) was obtained by subtracting the mean tumor burden in the vehicle (treated) group on the first day of treatment (Day 0) from the mean tumor burden in vehicle (treated) group on the assessment day. Statistical analysis was performed using ANCOVA when the mean tumor volume in vehicle treated mice reached tumor cutoff size.
The ST941 PBR palbociclib resistant model was obtained from XENOSTART™ LLC, San Antonio, Texas. We established model in house by continuous treatment of the ST941 PBR tumor bearing mice with PD-0332991 at 50 mg/kg, PO QD plus fulvestrant at 10 mg/kg, SC twice in the first week, then weekly thereafter. To propagate donors for the TGI study, tumors were transplanted to recipient mice. One week after the re-implantation, the recipient mice received continuous treatment with palbociclib plus fulvestrant (dosing schedule described above). After 1 to 2 serial in vivo propagation with the same treatment regimen, the resistant tumors in the range of 700 to 800 mm^3 were re-implanted for a study expansion. The remaining tumor fragments were viably frozen for future use.
The live donor mice were established by implanting ST941 PBR (p11) tumor fragments. Once reaching a range of 700 to 800 mm^3, the donor tumors were subsequently transplanted into secondary recipient mice for a study expansion. To maintain the resistant clones, the ST941 PBR tumor bearing mice were treated with PD-0332991 at 50 mg/kg, PO. QD plus fulvestrant at 10 mg/kg, SC twice in the first week, then weekly afterwards for 10 weeks. […] TGI was assessed on Day 28 post first dose.

On to `CC(=O)c1c(C)c2cnc(Nc3ccc(N4CCNCC4)cn3)nc2n(C2CCCC2)c1=O` [Palbociclib, palbociclib, reference compound], for which the entries for the “Loewe Volume” value with MCF7 Cells and in the assay with T-47D Cells were −0.16 and −0.25, respectively. The results for the “Best CI” value in the assay with MCF7 Cells (Best CI Level 70) and with T-47D Cells (Best CI Level 70) were 0.94 and 0.96, respectively. Besides, the TGI % with NCI-H526 Model (10 mg/kg BID PO, Day 15) is listed as 33%; with NCI-H526 Model (10 mg/kg BID PO, Day 15, listed as palbociclib), 33%; in the assay with NCI-H526 Model (50 mg/kg SID PO, Day 15), 22%; with NCI-H526 Model (50 mg/kg SID PO, Day 15, listed as palbociclib), 22%; in the assay on T47D, 72* %; with HCC1428 it was 44* %. Also, the values for the TGI % with HCC1428 (listed as palbociclib) and in the assay with ST941PBR PDX were 44% and 15%, respectively.
